For series [1], the system named is TAOK1 (neojunction transcript). The series can be described thus: In vivo PD RT-qPCR in NCI-N87 tumors, TAOK1. More on the design: species or system CB17-SCID mice. The settings on record: 10 mg/kg IV single dose, NCI-N87 xenograft, versus vehicle. (In qPCR the cycle at which signal appears reflects the starting amount.)
Protocol: (§1) Single cell suspension of 5 million cells per 0.1 mL (50% ATCC-modification-RPMI-1640-medium, Cat. No. A10491-01 (Thermo-Fisher Scientific); and 50% Corning Matrigel, Cat No. 356254 (VWR Scientific)) was injected subcutaneously on the right lateral flank with a syringe with a 25 Ga needle. Mice were randomized on day 0 at a mean tumor volume of 180-183 mm^3, n=8 per group for efficacy and n=4 per group for pharmacodynamics (PD). On day 1, test articles were administered (10 mg/kg) at a volume of 5 mL/kg intravenously every 7 days for 2 cycles for efficacy; a single course of treatment was used for PD assessment. Animals in the PD cohorts were euthanized at 24, 48, 72, and/or 96 hours post-dosing of a single dose, depending on the test article.
(§2) RNA was purified from tumor samples using MagMAX-96 for Microarrays kit and MagMAX Express-96 Deep Well Magnetic Particle Processor (ThermoFisher Scientific). Tumor samples (size 50-100 mg) were collected in RNAlater buffer and kept at −80° C. until RNA isolation. Tissue homogenization was performed by adding 2-3 ceramic beads and 1 mL of Tri-reagent into a tube containing tumors, followed by disruption on an Omni Bead Ruptor 24 instrument (Omni International). RNA isolation was done according to the manufacturer's instructions.
(§3) RNA lysates were isolated and reverse transcribed using TaqMan Fast Virus 1-Step Master Mixt (ThermoFisher Scientific) according to the manufacturer's instructions.
(§4) Quantitative PCR from cDNA was performed using TaqMan Gene Expression Master Mix (ThermoFisher Scientific) with transcript probes targeting FBXW5 or TAOK1 junctions duplexed with RPLP0 RNA VIC-PL (ThermoFisher Scientific) and quantified using the ΔΔCt method.
(§5) RT-qPCR of FBXW5 (mature mRNA transcript) and TAOK1 (neojunction transcript) were monitored. Test article or vehicle was given intravenously (IV) at 10 mg/kg. […] Tumors were isolated for RNA extraction and RT-qPCR. *p<0.05 versus vehicle using one-way ANOVA (FIG. 24A and FIG. 24B) or two-way ANOVA (FIG. 24C and FIG. 24D).
In series [2] the test system is FBXW5 (mature mRNA transcript). The series can be described thus: In vivo PD RT-qPCR in NCI-N87 tumors, FBXW5. More on the design: species or system CB17-SCID mice. The settings on record: 10 mg/kg IV single dose, NCI-N87 xenograft, versus vehicle.
Protocol: as §1, §2, §3, §4, §5
The test system of a further series is Caco-2 cells. The series can be described thus: Caco-2 permeability of ADC payload. Type of series: in vitro ADME. On the technique in general: Caco-2 monolayers are a common model of the intestinal barrier.
The next series concerns THP1.1. The series can be described thus: Payload cell potency and lethality CellTiter-Glo, THP1. The series is classed as cell-based. The settings on record: for GI50: Homo sapiens. How it is done: Each concentration was tested in triplicate. […] Values represent time zero (TO).
In general terms: ATP-based viability assays read luminescence as a measure of living cells.

A further series has as its system PC3 cells. The series can be described thus: Cell viability, EPHA2-expressing PC3. The settings on record: free payload of the ADC. Type of series: cell-based.
The test system of another series is N87 cells. Nature of the series: Cell viability CellTiter-Glo, N87. Type of series: cell-based, human. Particulars: unconjugated payload of the ADC.
Series [3] can be described thus: Caco-2 permeability of ADC payload. The series is classed as in vitro ADME. Particulars: human, payload; for efflux ratio at 2 h, 10 µM: Caco-2, B−A/A−B.
Protocol: (§6) Integrity of cell monolayer was confirmed by TEER (transepithelial electrical resistance) and Lucifer yellow. Payloads were spiked in duplicate at 10 µM, separately, on both sides of the cell monolayer. Permeability rates from the apical to basolateral (A−B) direction and the basolateral to apical (B−A) direction were determined by sampling aliquots from both chambers immediately after treatment (t=0) and following incubation for 2 hours. Samples were protein precipitated with organic solvent containing internal standard and analyzed by LC-MS/MS (SCIEX; API 5500). The area ratio responses of payload/internal standard over time in both directions were used to generate permeability (cm/sec) values.
Setting [4] is: THP-1, read-out: Payload cell potency: CT..-ATS GMean GI50 (nM) THP1.1.

Each structure is given as a SMILES string. Like-named read-outs stand apart in the source and are kept apart here.

Protocol for Caco-2 cells: as §6
Protocol for N87 cells: (§7) HCC1954 (American Type Culture Collection (ATCC)) breast ductal carcinoma cells were plated at 2000 cells/well in flat bottom 96-well tissue culture plates (Corning) in a total volume of 90 μL tissue culture medium supplemented with 10% fetal bovine serum (ThermoFisher Scientific). Cells were treated with a 3-fold serial dilution of compound from 200 nM to 0.03 nM. Each concentration was tested in triplicate. At the time of treatment, a plate of untreated cells was evaluated using CellTiter-Glo®2.0 Luminescent Cell Viability Assay according to the manufacturer's recommendations (Promega; #G9241). CellTiter-Glo® 2.0 reagent was added to the medium, incubated, and assayed on an EnVision Multilabel Reader (PerkinElmer). Values represent time zero (TO). […] Percentage growth inhibition was calculated as: [(T144−T0)/(C−T0)]×100 for concentrations for which T144>/=T0 or [(T144−T0)/T0]×100 for concentrations for which T144<T0. The dose response curve plots were generated using Prism 7 (Graphpad) and fit using nonlinear regression analysis and the log (inhibitor) versus response—variable slope (four parameters).
HCC1954 (ATCC), 2000 cells/well), N87 (ATCC, 4000 cells/well), SKBR3 (ATCC, 3000 cells/well), and MCF7 (ATCC, 1500 cells/well) cell lines were used. Cell viability analysis was performed as described in section 2.3.
Protocol for PC3 cells: as §7
Anti-CD138 ADCs were tested in the CD138-expressing MOLP8 multiple myeloma cell line. Similarly, anti-EPHA2 ADCs were tested in the EPHA2-expressing PC3 prostate cancer cell line.

As for `CC[C@H](O)[C@@H](C)C1OC1C[C@@](C)(O)/C=C/C=C(\C)[C@H]1OC(=O)C[C@H](O)CC[C@@](C)(OC)[C@@H](OC(=O)N2CCN(CCN3C(=O)C=CC3=O)CC2)/C=C/[C@@H]1C` (stereo in doubt) [ADL14-D1, (2S,3S,6S,7R,10R,E)-10-hydroxy-2-((R,2E,4E)-6-hydroxy-7-((2S,3S)-3-((2R,3S)-3-hydroxypentan-2-yl)oxiran-2-yl)-6-methylhepta-2,4-dien-2-yl)-7-methoxy-3,7-dimethyl-12-oxooxacyclododec-4-en-6-yl 4-(2-(2,5-dioxo-2,5-dihydro-1H-pyrrol-1-yl)ethyl)piperazine-1-carboxylate], the “change in TAOK1 neojunction transcript in tumors” value in series [1] is “did not exhibit statistically significant changes”. In addition, the “change in FBXW5 mature mRNA transcript in tumors” value in series [2] is “did not exhibit statistically significant changes”.

Broadly, the GI50 is the concentration at which growth is held to half of that of the control. For `CC[C@H](O)[C@@H](C)C1OC1C[C@@](C)(O)/C=C/C=C(\C)[C@H]1OC(=O)C[C@H](O)CC[C@@](C)(OC(C)=O)[C@@H](OC(=O)N2CCNCC2)/C=C/[C@@H]1C` (stereo in doubt) [D4, (2S,3S,6S,7R,10R,E)-7-acetoxy-10-hydroxy-2-((R,2E,4E)-6-hydroxy-7-((2S,3S)-3-((2R,3S)-3-hydroxypentan-2-yl)oxiran-2-yl)-6-methylhepta-2,4-dien-2-yl)-3,7-dimethyl-12-oxooxacyclododec-4-en-6-yl piperazine-1-carboxylate], the “Perm. Mean Caco-2 B-A Perm” value in the series with Caco-2 cells (corresponding free payload, B-A) is on record as 1.79 10e−6 cm/s. The GI50 with THP1.1 (setting [4]) was found to be 10.9 nM. For the same molecule, the “Payload Rmin” value with PC3 cells was −55.97%. For the same molecule, the “Payload Rmin (%)” value in the series on N87 cells was −81.775%.

Regarding `CC[C@H](O)[C@@H](C)[C@H]1O[C@@H]1C[C@@](C)(O)/C=C/C=C(\C)[C@H]1OC(=O)C[C@H](O)CC[C@@](C)(OC(C)=O)[C@@H](OC(=O)N2CCN(C(=O)OCc3ccc(NC(=O)[C@H](CCCNC(N)=O)NC(=O)[C@@H](NC(=O)CCCCCN4C(=O)C=CC4=O)C(C)C)cc3)CC2)/C=C/[C@@H]1C` [ADL1-D4], the “change in TAOK1 neojunction transcript in tumors” value in series [1] is “significant increases in TAOK1”. Further, the “change in FBXW5 mature mRNA transcript in tumors” value in series [2] is listed as “significant depletion of FBXW5”.

In the case of `CC[C@H](O)[C@@H](C)[C@H]1O[C@@H]1C[C@@](C)(O)/C=C/C=C(\C)[C@H]1OC(=O)C[C@H](O)CC[C@@](C)(OC)[C@@H](OC(=O)N2CCN(C)CC2)/C=C/[C@@H]1C` [D2, (2S,3S,6S,7R,10R,E)-10-hydroxy-2-((R,2E,4E)-6-hydroxy-7-((2R,3R)-3-((2R,3S)-3-hydroxypentan-2-yl)oxiran-2-yl)-6-methylhepta-2,4-dien-2-yl)-7-methoxy-3,7-dimethyl-12-oxooxacyclododec-4-en-6-yl 4-methylpiperazine-1-carboxylate], the “payload permeability as compared to D1” value with Caco-2 cells (see Table 14) is given as “three-fold increase”. The GI50 in the series with THP1.1 (setting [4]) was 2.02 nM. Moreover, the “CTGlo-ATS Mean MinResponse % THP1.1” value in the series with THP1.1 (payload of the ADC) was −100.218%. For the same molecule, in the series with THP1.1 (see Table 14), the “payload cell potency as compared to D1” value is reported as “three-fold increase”. In addition, in the series with PC3 cells, the “Payload Rmin” value is recorded as −68.803%. Also, the “Payload Rmin (%)” value in the series with N87 cells is given as −72.706%.

Regarding `CC[C@H](O)[C@@H](C)[C@H]1O[C@@H]1C[C@@](C)(O)/C=C/C=C(\C)[C@H]1OC(=O)C[C@H](O)CC[C@@](C)(O)[C@@H](OC(=O)N2CCN(C3CCCCCC3)CC2)/C=C/[C@@H]1C` [D11, E7107], the “CTGlo-ATS Mean MinResponse % THP1.1” value with THP1.1 (payload of the ADC) is −100.481%.

As usually defined, the efflux ratio is a quotient of directional permeabilities that is used to spot active efflux. As to `CC(=O)N1CCC(n2nnc3c(F)cc(/C=C(\C)[C@H]4OC(=O)C[C@H](O)CC[C@H](C)[C@@H](OC(=O)N5CCN(C)CC5)/C=C/[C@@H]4C)cc32)CC1` [D15], the Papp B→A at 2 h, 10 µM in series [3] (Caco-2, basolateral to apical, 2 hours, read-out: Permeability Mean Caco-2 B-A Perm (10e−6 cm/s)) was 28.9 ×10⁻⁶ cm/s. Moreover, in series [3], the efflux ratio at 2 h, 10 µM amounted to 7.84. Further, the “Payload Rmin” value in the series with PC3 cells is recorded as −79.835%.

With `C/C(=C\c1cc(F)cc(N2CCOCC2)c1)[C@H]1OC(=O)C[C@H](O)CC[C@H](C)[C@@H](OC(=O)N2CCN(C)CC2)/C=C/[C@@H]1C` [D17], the GI50 in the series with THP1.1 (THP-1, payload of the ADC, read-out: Payload cell potency: CT..-ATS GMean GI50 (nM) THP1.1) worked out at 2.83 nM.

Consider `CC[C@H](O)[C@@H](C)[C@H]1O[C@@H]1C[C@H](C)/C=C/C=C(\C)[C@H]1OC(=O)C[C@H](O)CC[C@@](C)(OC)[C@@H](OC(=O)N2CCNCC2)/C=C/[C@@H]1C` [D18, (2S,3S,6S,7R,10R,E)-10-hydroxy-2-((S,2E,4E)-7-((2R,3R)-3-((2R,3S)-3-hydroxypentan-2-yl)oxiran-2-yl)-6-methylhepta-2,4-dien-2-yl)-7-methoxy-3,7-dimethyl-12-oxooxacyclododec-4-en-6-yl piperazine-1-carboxylate], for which the efflux ratio at 2 h, 10 µM in series [3] was determined as 23. In addition, in the series with N87 cells, the “Payload Rmin (%)” value is −92.127%.

`CC[C@H](O)[C@@H](C)[C@H]1O[C@@H]1C[C@@](C)(O)/C=C/C=C(\C)[C@H]1OC(=O)C[C@H](O)CC[C@@](C)(OC)[C@@H](OC(=O)N(C)CCNC)/C=C/[C@@H]1C` [D20, (2S,3S,6S,7R,10R,E)-10-hydroxy-2-((R,2E,4E)-6-hydroxy-7-((2R,3R)-3-((2R,3S)-3-hydroxypentan-2-yl)oxiran-2-yl)-6-methylhepta-2,4-dien-2-yl)-7-methoxy-3,7-dimethyl-12-oxooxacyclododec-4-en-6-yl methyl(2-(methylamino)ethyl)carbamate]: the efflux ratio at 2 h, 10 µM in series [3] worked out at 2.38.

`CC[C@H](O)[C@@H](C)[C@H]1O[C@@H]1C[C@@](C)(O)/C=C/C=C(\C)[C@H]1OC(=O)C[C@H](O)CC[C@@](C)(OC)[C@@H](OC(=O)N2CCNC(CCC(=O)O)C2)/C=C/[C@@H]1C` (stereo partly drawn) [D22, N-ethyl-N-isopropylpropan-3-(4-((((2S,3S,6S,7R,10R,E)-10-hydroxy-2-((R,2E,4E)-6-hydroxy-7-((2R,3R)-3-((2R,3S)-3-hydroxypentan-2-yl)oxiran-2-yl)-6-methylhepta-2,4-dien-2-yl)-7-methoxy-3,7-dimethyl-12-oxooxacyclododec-4-en-6-yl)oxy)carbonyl)piperazin-2-yl)propanoic acid]: the efflux ratio at 2 h, 10 µM in series [3] came to 1.14. Moreover, the “CTGlo-ATS Mean MinResponse % THP1.1” value in the series with THP1.1 (payload of the ADC) is given as −78.119%.

Take `CC[C@H](O)[C@@H](C)[C@H]1O[C@@H]1C[C@@](C)(O)/C=C/C=C(\C)[C@H]1OC(=O)C[C@H](O)CC[C@@](C)(OC)[C@@H](OC(=O)N2CCN(CCCC(=O)O)CC2)/C=C/[C@@H]1C` [D25]: the “Payload Rmin (%)” value in the series on N87 cells stood at 40.364%.

Regarding `C/C(=C\c1cc(F)cc(N2CCN(CC(=O)O)CC2)c1)[C@H]1OC(=O)C[C@H](O)CC[C@H](C)[C@@H](OC(=O)N2CCNCC2)/C=C/[C@@H]1C` [D33, 2-(4-(3-fluoro-5-((E)-2-((2S,3S,6R,7S,10R,E)-10-hydroxy-3,7-dimethyl-12-oxo-6-((piperazine-1-carbonyl)oxy)oxacyclododec-4-en-2-yl)prop-1-en-1-yl)phenyl)piperazin-1-yl) acetic acid], the efflux ratio at 2 h, 10 µM in series [3] was 4.08.

As for `COc1cc2cc(c1Cl)N(C)C(=O)C[C@H](OC(=O)[C@H](C)N(C)C(=O)CCS)[C@]1(C)O[C@H]1[C@H](C)[C@@H]1C[C@@](O)(NC(=O)O1)[C@H](OC)/C=C/C=C(\C)C2` [DM1, reference compound], the “Payload cell lethality: CT..-ATS GMean LD50 (nM) THP1.1” value in the series on THP1.1 (payload of the ADC) is given as 3.287 nM.

The record behind these values is US20260158152A1, “SPLICING MODULATOR ANTIBODY-DRUG CONJUGATES AND METHODS OF USE” (EISAI R&D MANAGEMENT CO., LTD., priority 2018, published 2026).
